Measurements as given in US12331054B2, “Perk inhibiting imidazolopyrazine compounds” (HiberCell, Inc., priority 2019, dated 2025).

Columns and labels:
[1] = molecular target: Recombinant human EIF2AK3 (PERK) catalytic domain (amino acids 536-1116) (Homo sapiens (Human), UniProt Q9NZJ5); test: PERK In Vitro Activity Assay (isolated), TR-FRET kinase assay; settings: isolated PERK enzyme, 1.5 μM ATP, read-out: Biochemical IC50
Outline: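 Recombinant PERK catalytic domain was incubated with 100–200 nM GFP-eIF2a substrate in 50 mM HEPES pH 7.5, 10 mM MgCl2, 1.0 mM EGTA and 0.01% Brij-35 for 45 min at room temperature. After a 10 mM EDTA stop, 2 nM Tb-anti-phospho-eIF2a was added for 90 min, and IC50 was fitted from TR-FRET ratios by 4-parameter logistic regression.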

[2] = system: eIF2α in HEK293-EGFP-eIF2α cells; test: PERK Cellular Assay (HEK293-EGFP-eIF2α cells, tunicamycin-induced ER stress, TR-FRET); format: cell-based; settings: tunicamycin 2 hours
Outline: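 Cells pre-incubated with inhibitor 30 min at 37 °C, then ER stress induced with […] tunicamycin for 2 h. TR-FRET read on lysates; ratio normalized to DMSO control as percent inhibition over a 10-point, 3-fold dilution series; IC50 from 4-parameter logistic fit.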

Chain of Recombinant human EIF2AK3 (PERK) catalytic domain (amino acids 536-1116) (Q9NZJ5 536-1116): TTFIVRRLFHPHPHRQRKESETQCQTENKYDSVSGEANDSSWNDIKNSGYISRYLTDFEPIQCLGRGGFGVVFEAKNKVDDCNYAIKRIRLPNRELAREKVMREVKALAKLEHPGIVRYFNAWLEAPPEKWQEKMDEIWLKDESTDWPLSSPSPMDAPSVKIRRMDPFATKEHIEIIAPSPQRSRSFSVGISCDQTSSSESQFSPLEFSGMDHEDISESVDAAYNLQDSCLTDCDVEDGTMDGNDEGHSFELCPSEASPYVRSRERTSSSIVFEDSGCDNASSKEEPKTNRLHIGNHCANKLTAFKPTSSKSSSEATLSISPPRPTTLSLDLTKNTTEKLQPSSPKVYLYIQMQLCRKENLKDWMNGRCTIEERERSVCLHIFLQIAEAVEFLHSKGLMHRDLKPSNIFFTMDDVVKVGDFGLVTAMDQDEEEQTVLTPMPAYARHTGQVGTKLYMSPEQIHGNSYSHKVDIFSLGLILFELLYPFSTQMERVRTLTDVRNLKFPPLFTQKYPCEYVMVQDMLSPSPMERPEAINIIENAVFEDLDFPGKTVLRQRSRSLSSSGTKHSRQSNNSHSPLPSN

SMILES: Cc1cc(F)cc(C(O)C(=O)Nc2ccc(-c3nc(C)n4c(C)cnc(N)c34)c(C)c2)c1 (centres unmarked) [Example 63, N-(4-(8-amino-3,5-dimethylimidazo [1,5-a]pyrazin-1-yl)-3-methyl-phenyl)-2-(3-fluoro-5-methylphenyl)-2-hydroxyacetamide]
- IC50 [1]: 0.001 to 0.025 µM
- IC50 [2]: 0.051 to 0.1 µM

SMILES: [2H]C([2H])([2H])c1nc(-c2ccc(NC(=O)C(O)c3cccc(Cl)c3)c(F)c2F)c2c(N)ncc(C(F)(F)F)n12 (centres unmarked) [Example 142, N-[4-[8-amino-3-(trideuteriomethyl)-5-(trifluoromethyl)imidazo[1,5-a]pyrazin-1-yl]-2,3-difluoro-phenyl]-2-(3-chlorophenyl)-2-hydroxy-acetamide]
- IC50 [1]: 0.001 to 0.025 µM
- IC50 [2]: 0.001 to 0.025 µM

SMILES: [2H]C([2H])([2H])c1nc(-c2ccc(NC(=O)C(O)c3cc(F)cc(C(F)(F)F)c3)c(F)c2F)c2c(N)nc(C)cn12 (centres unmarked) [Example 166, N-[4-[8-amino-6-methyl-3-(trideuteriomethyl)imidazo[1,5-a]pyrazin-1-yl]-2,3-difluoro-phenyl]-2-[3-fluoro-5-(trifluoromethyl)phenyl]-2-hydroxy-acetamide]
- IC50 [1]: 0.001 to 0.025 µM
- IC50 [2]: 0.001 to 0.025 µM

SMILES: Cc1cc(NC(=O)C(O)c2cccc(F)c2)ccc1-c1nc(C)n2c(C(F)(F)F)cnc(N)c12 (centres unmarked) [Example 26, N-(4-(8-amino-3-methyl-5-(trifluoromethyl)imidazo[1,5-a]pyrazin-1-yl)-3-methylphenyl)-2-(3-fluorophenyl)-2-hydroxyacetamide]
- IC50 [1]: 0.001 to 0.025 µM
- IC50 [2]: 0.026 to 0.05 µM

SMILES: [2H]C([2H])([2H])c1nc(-c2ccc(NC(=O)C(O)c3cccc(C(F)(F)F)c3)c(F)c2F)c2c(N)ncc(C)n12 (centres unmarked) [Example 146, N-[4-[8-amino-5-methyl-3-(trideuteriomethyl)imidazo[1,5-a]pyrazin-1-yl]-2,3-difluoro-phenyl]-2-hydroxy-2-[3-(trifluoromethyl)phenyl]acetamide]
- IC50 [1]: 0.001 to 0.025 µM
- IC50 [2]: 0.001 to 0.025 µM

SMILES: [2H]C([2H])([2H])c1nc(-c2ccc(NC(=O)C(O)c3cccc(C(F)(F)F)c3)cc2C)c2c(N)ncc(Cl)n12 (centres unmarked) [Example 19, N-[4-[8-amino-5-chloro-3-(trideuteriomethyl)imidazo[1,5-a]pyrazin-1-yl]-3-methyl-phenyl]-2-hydroxy-2-[3-(trifluoromethyl)phenyl]acetamide]
- IC50 [1]: 0.001 to 0.025 µM
- IC50 [2]: 0.026 to 0.05 µM

SMILES: [2H]C([2H])([2H])c1nc(-c2ccc(NC(=O)C(O)c3cccc(C(F)(F)F)c3)cc2F)c2c(N)ncc(C(F)(F)F)n12 (centres unmarked) [Example 99, N-[4-[8-amino-3-(trideuteriomethyl)-5-(trifluoromethyl)imidazo[1,5-a]pyrazin-1-yl]-3-fluoro-phenyl]-2-hydroxy-2-[3-(trifluoromethyl)phenyl]acetamide]
- IC50 [1]: 0.026 to 0.05 µM
- IC50 [2]: 0.101 to 0.25 µM

SMILES: [2H]C([2H])([2H])c1nc(-c2ccc(NC(=O)C(O)c3cc(F)cc(C(F)(F)F)c3)c(F)c2F)c2c(N)ncc(Cl)n12 (centres unmarked) [Example 164, N-[4-[8-amino-5-chloro-3-(trideuteriomethyl)imidazo[1,5-a]pyrazin-1-yl]-2,3-difluoro-phenyl]-2-[3-fluoro-5-(trifluoromethyl)phenyl]-2-hydroxy-acetamide]
- IC50 [1]: 0.001 to 0.025 µM
- IC50 [2]: 0.001 to 0.025 µM

SMILES: [2H]C([2H])([2H])c1nc(-c2ccc(NC(=O)C(O)c3cccc(C)c3)cc2F)c2c(N)ncc(C)n12 (centres unmarked) [Example 90, N-[4-[8-amino-5-methyl-3-(trideuteriomethyl)imidazo[1,5-a]pyrazin-1-yl]-3-fluoro-phenyl]-2-hydroxy-2-(m-tolyl)acetamide]
- IC50 [1]: 0.001 to 0.025 µM
- IC50 ([2]; 2 h): 0.026 to 0.05 µM

SMILES: [2H]C([2H])([2H])c1nc(-c2ccc(NC(=O)C(O)c3cc(F)cc(C(F)(F)F)c3)cc2C)c2c(N)ncc(Cl)n12 (centres unmarked) [Example 57, N-[4-[8-amino-5-chloro-3-(trideuteriomethyl)imidazo[1,5-a]pyrazin-1-yl]-3-methyl-phenyl]-2-[3-fluoro-5-(trifluoromethyl)phenyl]-2-hydroxy-acetamide]
- IC50 [1]: 0.001 to 0.025 µM
- IC50 [2]: 0.026 to 0.05 µM

SMILES: [2H]C([2H])([2H])c1nc(-c2ccc(NC(=O)C(O)c3cc(F)cc(C(F)(F)F)c3)cc2C)c2c(N)nc(C)cn12 (centres unmarked) [Example 53, N-[4-[8-amino-6-methyl-3-(trideuteriomethyl)imidazo[1,5-a]pyrazin-1-yl]-3-methyl-phenyl]-2-[3-fluoro-5-(trifluoromethyl)phenyl]-2-hydroxy-acetamide]
- IC50 [1]: 0.101 to 0.25 µM
- IC50 [2]: 0.501 to 1 µM

SMILES: [2H]C([2H])([2H])c1nc(-c2ccc(NC(=O)C(O)c3cccc(Cl)c3)cc2C)c2c(N)ncc(Cl)n12 (centres unmarked) [Example 43, N-[4-[8-amino-5-chloro-3-(trideuteriomethyl)imidazo[1,5-a]pyrazin-1-yl]-3-methyl-phenyl]-2-(3-chlorophenyl)-2-hydroxy-acetamide]
- IC50 [1]: 0.001 to 0.025 µM
- IC50 [2]: 0.026 to 0.05 µM

SMILES: Cc1cc(NC(=O)C(O)c2cccc(F)c2)c(F)cc1-c1nc(C)n2c(C)cnc(N)c12 (centres unmarked) [Example 65, N-(4-(8-amino-3,5-dimethylimidazo [1,5-a]pyrazin-1-yl)-2-fluoro-5-methylphenyl)-2-(3-fluorophenyl)-2-hydroxy-acetamide]
- IC50 [1]: 0.001 to 0.025 µM
- IC50 [2]: 0.001 to 0.025 µM

SMILES: Cc1cc(NC(=O)C(O)c2cccc(F)c2)ccc1-c1nc(C)n2c(Cl)cnc(N)c12 (centres unmarked) [Example 28, N-(4-(8-amino-5-chloro-3-methylimidazo[1,5-a]pyrazin-1-yl)-3-methylphenyl)-2-(3-fluorophenyl)-2-hydroxyacetamide]
- IC50 [1]: 0.001 to 0.025 µM
- IC50 [2]: 0.001 to 0.025 µM

SMILES: [2H]C([2H])([2H])c1nc(-c2ccc(NC(=O)C(O)c3cc(F)cc(F)c3)cc2C)c2c(N)nc(C)cn12 (centres unmarked) [Example 45, N-[4-[8-amino-6-methyl-3-(trideuteriomethyl)imidazo[1,5-a]pyrazin-1-yl]-3-methyl-phenyl]-2-(3,5-difluoro-phenyl)-2-hydroxy-acetamide]
- IC50 [1]: 0.051 to 0.1 µM
- IC50 [2]: 1 to 2 µM

SMILES: [2H]C([2H])([2H])c1nc(-c2ccc(NC(=O)C(O)c3cccc(C(F)(F)F)c3)cc2C)c2c(N)ncc(C)n12 (centres unmarked) [Example 16, N-[4-[8-amino-5-methyl-3-(trideuteriomethyl)imidazo[1,5-a]pyrazin-1-yl]-3-methyl-phenyl]-2-hydroxy-2-[3-(trifluoromethyl)phenyl]acetamide]
- IC50 [1]: 1 to 2 µM
- IC50 [2]: > 5 µM

SMILES: [2H]C([2H])([2H])c1nc(-c2ccc(NC(=O)C(O)c3cccc(C(F)(F)F)c3)cc2C)c2c(N)ncc(Cl)n12 (centres unmarked) [Example 18, N-[4-[8-amino-5-chloro-3-(trideuteriomethyl)imidazo[1,5-a]pyrazin-1-yl]-3-methyl-phenyl]-2-hydroxy-2-[3-(trifluoromethyl)phenyl]acetamide]
- IC50 [1]: 0.001 to 0.025 µM
- IC50 [2]: 0.001 to 0.025 µM

SMILES: Cc1cc(F)cc(C(O)C(=O)Nc2ccc(-c3nc(C)n4c(C)cnc(N)c34)c(C)c2)c1 (centres unmarked) [Example 62, N-(4-(8-amino-3,5-dimethylimidazo [1,5-a]pyrazin-1-yl)-3-methyl-phenyl)-2-(3-fluoro-5-methylphenyl)-2-hydroxyacetamide]
- IC50 [1]: 0.001 to 0.025 µM
- IC50 [2]: 0.001 to 0.025 µM

SMILES: [2H]C([2H])([2H])c1nc(-c2ccc(NC(=O)C(O)c3cccc(F)c3)nc2C)c2c(N)nc(C)cn12 (centres unmarked) [Example 170, N-[5-[8-amino-6-methyl-3-(trideuteriomethyl)imidazo[1,5-a]pyrazin-1-yl]-6-methyl-2-pyridyl]-2-(3-fluorophenyl)-2-hydroxy-acetamide]
- IC50 [1]: 0.001 to 0.025 µM
- IC50 [2]: 0.101 to 0.25 µM

SMILES: [2H]C([2H])([2H])c1nc(-c2ccc(NC(=O)C(O)c3cccc(C(F)(F)F)c3)c(F)c2F)c2c(N)ncc(C)n12 (centres unmarked) [Example 147, N-[4-[8-amino-5-methyl-3-(trideuteriomethyl)imidazo[1,5-a]pyrazin-1-yl]-2,3-difluoro-phenyl]-2-hydroxy-2-[3-(trifluoromethyl)phenyl]acetamide]
- IC50 [1]: 0.026 to 0.05 µM
- IC50 [2]: 0.101 to 0.25 µM

SMILES: [2H]C([2H])([2H])c1nc(-c2ccc(NC(=O)C(O)c3cccc(Cl)c3)c(F)c2F)c2c(N)ncc(C(F)(F)F)n12 (centres unmarked) [Example 143, N-[4-[8-amino-3-(trideuteriomethyl)-5-(trifluoromethyl)imidazo[1,5-a]pyrazin-1-yl]-2,3-difluoro-phenyl]-2-(3-chlorophenyl)-2-hydroxy-acetamide]
- IC50 [1]: 0.251 to 0.5 µM
- IC50 [2]: 0.251 to 0.5 µM

SMILES: [2H]C([2H])([2H])c1nc(-c2ccc(NC(=O)C(O)c3cccc(F)c3)cc2C)c2c(N)ncc(Cl)n12 (centres unmarked) [Example 32, N-[4-[8-amino-5-chloro-3-(trideuteriomethyl)imidazo[1,5-a]pyrazin-1-yl]-3-methyl-phenyl]-2-(3-fluorophenyl)-2-hydroxy-acetamide]
- IC50 [1]: 0.001 to 0.025 µM
- IC50 [2]: 0.001 to 0.025 µM

SMILES: Cc1cnc(N)c2c(-c3ccc(NC(=O)C(O)c4cccc(F)c4)cc3)nc(C)n12 (centres unmarked) [Example 68, N-(4-(8-amino-3,5-dimethylimidazo [1,5-a]pyrazin-1-yl)phenyl)-2-(3-fluorophenyl)-2-hydroxyacetamide]
- IC50 [1]: 0.001 to 0.025 µM
- IC50 [2]: 0.101 to 0.25 µM

SMILES: [2H]C([2H])([2H])c1nc(-c2ccc(NC(=O)C(O)c3cc(F)cc(C(F)(F)F)c3)cc2F)c2c(N)nc(C)cn12 (centres unmarked) [Example 116, N-[4-[8-amino-6-methyl-3-(trideuteriomethyl)imidazo[1,5-a]pyrazin-1-yl]-3-fluoro-phenyl]-2-[3-fluoro-5-(trifluoromethyl)phenyl]-2-hydroxy-acetamide]
- IC50 [1]: 0.001 to 0.025 µM
- IC50 [2]: 0.001 to 0.025 µM

SMILES: [2H]C([2H])([2H])c1nc(-c2ccc(NC(=O)C(O)c3cc(F)cc(C(F)(F)F)c3)cc2C)c2c(N)nc(C)cn12 (centres unmarked) [Example 52, N-[4-[8-amino-6-methyl-3-(trideuteriomethyl)imidazo[1,5-a]pyrazin-1-yl]-3-methyl-phenyl]-2-[3-fluoro-5-(trifluoromethyl)phenyl]-2-hydroxy-acetamide]
- IC50 [1]: 0.001 to 0.025 µM
- IC50 [2]: 0.026 to 0.05 µM
